# Legend:
# Neutrophils (LPS) = assay: High-dimensional phosphorylation analysis, Neutrophils (LPS); format: cell-based, human; conditions: 30 µM, 15'
# Description: (§1) The analysis measured 94 intracellular signaling nodes (81 phosphorylation sites, 10 total protein levels and 3 methylation/acetylation sites) in stimulated immune cells, including B cells (IgM plus CD40L), CD4 + and CD8 + T cells (IL-2; CD3 plus CD28), monocytes (M-CSF), NK cells (IL-2), and granulocytes (LPS).
# BTK [1] = biological target: T1, BTK (Homo sapiens, UniProt Q06187); assay: hBTK Lanthascreen biochemical activity
# T1 sequence (Q06187 whole entry): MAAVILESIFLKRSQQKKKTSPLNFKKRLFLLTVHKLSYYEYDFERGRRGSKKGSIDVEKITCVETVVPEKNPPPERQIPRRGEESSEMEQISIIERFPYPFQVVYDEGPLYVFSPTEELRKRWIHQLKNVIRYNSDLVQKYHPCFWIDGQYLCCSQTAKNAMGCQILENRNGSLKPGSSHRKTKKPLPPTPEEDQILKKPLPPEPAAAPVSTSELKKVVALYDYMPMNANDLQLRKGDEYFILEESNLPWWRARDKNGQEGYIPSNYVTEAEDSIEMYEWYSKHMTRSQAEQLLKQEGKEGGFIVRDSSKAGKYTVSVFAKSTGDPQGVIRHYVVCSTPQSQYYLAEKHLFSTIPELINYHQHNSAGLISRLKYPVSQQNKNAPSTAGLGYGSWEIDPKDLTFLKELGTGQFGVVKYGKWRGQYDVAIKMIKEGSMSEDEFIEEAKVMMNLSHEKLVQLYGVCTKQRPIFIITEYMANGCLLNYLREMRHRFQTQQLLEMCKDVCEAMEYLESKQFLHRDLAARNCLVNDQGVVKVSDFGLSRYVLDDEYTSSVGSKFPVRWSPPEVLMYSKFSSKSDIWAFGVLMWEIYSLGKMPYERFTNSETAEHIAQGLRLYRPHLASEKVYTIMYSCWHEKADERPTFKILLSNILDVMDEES
# CIA model rats = assay: Histopathological assessment of arthritis in CIA rats; format: in vivo, rat; conditions: for Histological assessment (Means of the 4 indexes): mean ± SEM
# Description: Briefly, the hind legs of each rat were fixed with 10% formalin, decalcified in 5% formic acid, embedded in paraffin, and cut for pathological staining. Arthritis, bone erosion and synovitis were determined by hematoxylin and eosin (H&E) staining, and cartilage damage was evaluated by safranin O staining. All parameters were scored on a scale of 0 to 4 based on severity according to the following criteria: 0 = no erosion, 1 = mild (focal subchondral erosion), 2 = moderate (multiple subchondral erosions), 3 = high (multiple subchondral erosions and focal erosion of the talus), and 4 = maximum (multiple erosions of the tarsal and metatarsal bones). This test was conducted by the Department of Pathology of Asan Medical Center (University of Ulsan College of Medicine, Republic of Korea).
# CTLL-2 = assay: IL-2 induced T cell proliferation in CTLL-2; format: cell-based; conditions: Mus musculus, cellular level
# [2] = Plasma pharmacokinetics in CIA model rats; format: in vivo; conditions: Lewis, rat; for AUC(0-t) / Tmax / Cmax: day 9, mean ± SD; for Cmax: po
# Description: After drug administration, whole blood was collected from CIA model rats and human subjects at the indicated times. Plasma was obtained by centrifugation at 12,000 rpm for 2 min and stored at − 20 °C until analysis.
# BTK [3] = biological target: T1, BTK; assay: BTK occupancy in whole blood ex vivo; format: cell-based; parameters: from tissue; host or cells: whole blood
# BTK [4] = biological target: T1, BTK; assay: Phase I BTK occupancy (free BTK ELISA) in PBMCs of healthy volunteers; format: in vivo; parameters: endogenous in cells; host or cells: PBMCs of healthy volunteers
# Description: PK/PD data from 24 subjects who had received the drug BID among the 90 total subjects who participated in the MAD study were analyzed. Blood was collected on day 1 before drug administration and 1 h, 2 h, 4 h, and 12 h after drug administration. Blood samples were taken 3 days and 2 h after drug administration. Additional blood samples were taken on day 6 (5, 20, and 60 mg/kg), day 15 (40 mg/kg), day 17, and day 21 for PK/PD analysis.
# (§2) The BTK occupancy assay and analysis of BTK phosphorylation inhibition were performed as described previously. Briefly, isolated PBMCs were lysed with RIPA buffer (R0278, Sigma-Aldrich) containing 1 × protease/phosphatase inhibitor (1861281, Thermo Fisher Scientific) and EDTA (1861274, Thermo Fisher Scientific). The supernatants were collected by 10 min at 14,000 × g in microcentrifuge at 4 °C and biotinylated probe was added to bind free BTK for 1 h. Rabbit anti-BTK Ab (1:5000 in 1% BSA) bound the captured BTK/probe complex, and was detected with […] antibody conjugated with HRP then ultra-TMB solution was added to each well for the free BTK analysis. Analysis of free and total BTK levels for the phase I study was conducted by Cambridge Biomedical Inc. (MA, USA). BTK occupancy was calculated by taking the free BTK and total BTK results from a given donor and used the following formula: %BTKoccupancy=100%-FreeBTK/totalBTK×100.
# A431 = assay: Cell growth inhibition in EGFR overexpressed A431; format: cell-based; conditions: Homo sapiens, A-431; cellular level; read-out: IC50, cell growth inhibition in EGFR overexppressed A431
# BTK [5] = biological target: T2, BTK (Rattus norvegicus, UniProt Q5S255); assay: BTK occupancy and BTK phosphorylation in CIA model rats (PD); format: in vivo; conditions: for correlation coefficient, arthritis score vs BTK occupancy: negative correlation; for correlation coefficient, clinical arthritis score vs BTK phosphorylation: positive correlation
# T2 construct: endogenous in cells; host or cells: rat PBMCs (normal rats in vitro; CIA model rats ex vivo)
# T2 sequence (Q5S255 1-660): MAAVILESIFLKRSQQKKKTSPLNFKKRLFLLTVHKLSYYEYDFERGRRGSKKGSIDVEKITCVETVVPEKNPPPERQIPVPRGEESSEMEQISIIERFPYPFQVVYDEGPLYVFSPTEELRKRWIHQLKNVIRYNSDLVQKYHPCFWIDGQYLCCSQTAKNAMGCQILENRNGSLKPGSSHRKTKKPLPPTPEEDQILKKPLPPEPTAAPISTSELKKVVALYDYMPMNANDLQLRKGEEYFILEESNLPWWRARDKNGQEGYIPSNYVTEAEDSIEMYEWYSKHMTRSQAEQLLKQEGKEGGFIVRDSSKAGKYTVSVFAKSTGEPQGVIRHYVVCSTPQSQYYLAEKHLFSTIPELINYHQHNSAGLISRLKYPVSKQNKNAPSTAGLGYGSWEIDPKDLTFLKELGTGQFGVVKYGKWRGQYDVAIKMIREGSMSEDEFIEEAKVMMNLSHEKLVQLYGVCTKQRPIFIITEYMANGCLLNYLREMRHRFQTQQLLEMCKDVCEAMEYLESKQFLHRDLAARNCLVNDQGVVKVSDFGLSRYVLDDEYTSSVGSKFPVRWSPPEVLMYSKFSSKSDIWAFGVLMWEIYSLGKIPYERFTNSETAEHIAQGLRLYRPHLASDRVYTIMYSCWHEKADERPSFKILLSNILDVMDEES
# Description: as §2
# For analysis of BTK phosphorylation inhibition, the relative percentage of phosphorylated BTK was calculated by the following equation: phospho-BTK level / total BTK level × 100. The results are presented as the mean percentage ± S.D.
# Figure 5 Pharmacologic inhibition of BTK and its correlation with efficacy. (A,B) Whole blood was collected from the CIA-induced rats at the 0, 4, 12, 24 h after final drug administration, and then PBMCs and plasma were isolated. BTK phosphorylation was detected by immunoblotting and normalized to the total BTK level, and BTK occupancy was measured by ELISA using a biotinylated probe as described in the Materials and Methods. […] Full-length blots are presented in Supplementary Fig. 1. (C) Correlations between drug efficacy (clinical arthritis score) and the PD markers BTK phosphorylation percentage (left)/drug efficacy and BTK occupancy percentage (right). Linear regression was performed by using GraphPad Prism 6. The data are presented as the mean ± S.D.
# CD4+ Memory (CD3+CD28) = assay: High-dimensional phosphorylation analysis, CD4+ Memory (CD3+CD28); format: cell-based, human; conditions: 30 µM, 5'
# Description: as §1
# [6] = 3 mg/kg, ankle joints, vs CIA control
structure (smiles),measurement,setting,value
C=CC(=O)Nc1cccc(Oc2nc(Nc3ccc(N4CCN(C)CC4)cc3)nc3ccoc23)c1 [Poseltinib],"4ebp1 phosphorylation, Log2Ratio Stim/Control",Neutrophils (LPS),0.28
same,"AKT1 phosphorylation, Log2Ratio Stim/Control",Neutrophils (LPS),0.66
same,"AMPK phosphorylation, Log2Ratio Stim/Control",Neutrophils (LPS),0.29
same,"Akt phosphorylation, Log2Ratio Stim/Control",Neutrophils (LPS),0.66
same,"BTK phosphorylation, Log2Ratio Stim/Control",Neutrophils (LPS),-0.25
same,"HSP27 phosphorylation, Log2Ratio Stim/Control",Neutrophils (LPS),0.34
same,"MAP2K1 phosphorylation, Log2Ratio Stim/Control",Neutrophils (LPS),2.38
same,"MNK phosphorylation, Log2Ratio Stim/Control",Neutrophils (LPS),0.40
same,"RPS6 phosphorylation, Log2Ratio Stim/Control",Neutrophils (LPS),0.66
same,IC50,BTK [1],6 nM
same,Histological assessment (Means of the 4 indexes),CIA model rats; 0.3 mg/kg oral once daily,6.9 ± 0.2
same,Histological assessment (Means of the 4 indexes),CIA model rats; 1 mg/kg oral once daily,6.3 ± 0.2
same,Histological assessment (Means of the 4 indexes),CIA model rats; 3 mg/kg oral once daily,4.1 ± 0.2
same,arthritis index reduction,CIA model rats; [6],44%
same,bone erosion index reduction,CIA model rats; [6],38%
same,cartilage degradation index reduction,CIA model rats; [6],37%
same,synovitis index reduction,CIA model rats; [6],37%
same,IC50,CTLL-2,> 500 nM
same,AUC(0-t),[2]; 0.3 mg/kg oral,2 ± 1.8 ng·h/mL
same,Tmax,[2]; 0.3 mg/kg oral,36 ± 18 min
same,AUC(0-t),[2]; 1 mg/kg oral,10 ± 3.6 ng·h/mL
same,Tmax,[2]; 1 mg/kg oral,30 min
same,AUC(0-t),[2]; 3 mg/kg oral,49.9 ± 10.4 ng·h/mL
same,Tmax,[2]; 3 mg/kg oral,84 ± 108 min
same,concentration at 4 h,"[2]; oral, all treatment groups (0.3, 1, 3 mg/kg), day 9, below LLOQ, read-out: plasma concentration at 4 h after drug administration",< 0.5 ng/mL
same,Cmax,"[2]; 0.3 mg/kg, 0.3 mg/kg oral",1.5 ± 0.5 ng/mL
same,Cmax,"[2]; 1 mg/kg, 1 mg/kg oral",7.3 ± 3.3 ng/mL
same,Cmax,"[2]; 3 mg/kg, 3 mg/kg oral",22.6 ± 2.3 ng/mL
same,IC50,BTK [3],160 nM
same,time of maximum BTK inhibition,BTK [4]; 40 mg,12 h
same,BTK occupancy,"BTK [4]; 40 mg dosing, maintained up to 48 h after the first dose",More than 80%
same,time of maximum BTK inhibition,BTK [4]; 60 mg,4 h
same,BTK inhibition,"BTK [4]; 4 h after the first dose, doses of 40 mg and higher",> 90%
same,inhibition at 20 mg,"BTK [4]; human, steady state (120 h), doses of 20 mg bid and higher",> 90%
same,IC50,A431,> 500 nM
same,BTK occupancy,"BTK [5]; 3 mg/kg, 4 h after the last administration",full BTK occupancy
same,BTK occupancy,"BTK [5]; 3 mg/kg, at 12 and 24 h",completely occupied
same,BTK occupancy,"BTK [5]; 0.3 and 1 mg/kg, 4 h after the last administration",partial BTK occupancy
same,BTK phosphorylation,"BTK [5]; 0.3 and 1 mg/kg, at 12 and 24 h",partially inhibited
same,"correlation coefficient, arthritis score vs BTK occupancy",BTK [5]; 4 h,0.8003
same,"correlation coefficient, clinical arthritis score vs BTK phosphorylation",BTK [5]; 4 h,0.6750
same,"correlation coefficient, arthritis score vs BTK occupancy",BTK [5]; 12 h,0.8757
same,"correlation coefficient, clinical arthritis score vs BTK phosphorylation",BTK [5]; 12 h,0.7795
same,"correlation coefficient, arthritis score vs BTK occupancy",BTK [5]; 24 h,0.8528
same,"correlation coefficient, clinical arthritis score vs BTK phosphorylation",BTK [5]; 24 h,0.8603
same,"BTK phosphorylation, Log2Ratio Stim/Control",CD4+ Memory (CD3+CD28),1.21
same,"CD247 phosphorylation, Log2Ratio Stim/Control",CD4+ Memory (CD3+CD28),2.86
same,"CrkL phosphorylation, Log2Ratio Stim/Control",CD4+ Memory (CD3+CD28),1.63
same,"LCK phosphorylation, Log2Ratio Stim/Control",CD4+ Memory (CD3+CD28),1.51
same,"PLCγ2 phosphorylation, Log2Ratio Stim/Control",CD4+ Memory (CD3+CD28),2.43
same,"PTK2B phosphorylation, Log2Ratio Stim/Control",CD4+ Memory (CD3+CD28),0.93
same,"SLP76 phosphorylation, Log2Ratio Stim/Control",CD4+ Memory (CD3+CD28),1.63
same,"Src phosphorylation, Log2Ratio Stim/Control",CD4+ Memory (CD3+CD28),0.82
same,"ZAP70 phosphorylation, Log2Ratio Stim/Control",CD4+ Memory (CD3+CD28),1.22

# Source: PMC8455565 (Scientific Reports, 2021)
